Patent US9440957B2, “Compounds and compositions for modulating EGFR Activity” (Novartis AG, priority 2012, dated 2016)
Read-outs that look alike come from different tables or passages of the source.

Legend:
H3255 (EGFR L858R) = H3255 (EGFR L858R) (Homo sapiens, UniProt P00533, L858R); assay: EGFR target modulation in H3255 cell line (phospho-EGFR Y1173 ELISA); format: cell-based
Outline: (§1)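 Cells grown in 10% FBS/RPMI, plated overnight at 37 °C, then treated with serially diluted compounds for 3 h. Lysates were analysed by sandwich ELISA (anti-EGFR capture, chemiluminescent readout).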

HaCaT (EGFR WT) = HaCaT (EGFR WT) (Homo sapiens, UniProt P00533); assay: EGFR target modulation in HaCaT (EGFR-WT) cell line (phospho-EGFR Y1173 ELISA); format: cell-based; details: value in parentheses
Sequence of HaCaT (EGFR WT) (P00533 25-1210): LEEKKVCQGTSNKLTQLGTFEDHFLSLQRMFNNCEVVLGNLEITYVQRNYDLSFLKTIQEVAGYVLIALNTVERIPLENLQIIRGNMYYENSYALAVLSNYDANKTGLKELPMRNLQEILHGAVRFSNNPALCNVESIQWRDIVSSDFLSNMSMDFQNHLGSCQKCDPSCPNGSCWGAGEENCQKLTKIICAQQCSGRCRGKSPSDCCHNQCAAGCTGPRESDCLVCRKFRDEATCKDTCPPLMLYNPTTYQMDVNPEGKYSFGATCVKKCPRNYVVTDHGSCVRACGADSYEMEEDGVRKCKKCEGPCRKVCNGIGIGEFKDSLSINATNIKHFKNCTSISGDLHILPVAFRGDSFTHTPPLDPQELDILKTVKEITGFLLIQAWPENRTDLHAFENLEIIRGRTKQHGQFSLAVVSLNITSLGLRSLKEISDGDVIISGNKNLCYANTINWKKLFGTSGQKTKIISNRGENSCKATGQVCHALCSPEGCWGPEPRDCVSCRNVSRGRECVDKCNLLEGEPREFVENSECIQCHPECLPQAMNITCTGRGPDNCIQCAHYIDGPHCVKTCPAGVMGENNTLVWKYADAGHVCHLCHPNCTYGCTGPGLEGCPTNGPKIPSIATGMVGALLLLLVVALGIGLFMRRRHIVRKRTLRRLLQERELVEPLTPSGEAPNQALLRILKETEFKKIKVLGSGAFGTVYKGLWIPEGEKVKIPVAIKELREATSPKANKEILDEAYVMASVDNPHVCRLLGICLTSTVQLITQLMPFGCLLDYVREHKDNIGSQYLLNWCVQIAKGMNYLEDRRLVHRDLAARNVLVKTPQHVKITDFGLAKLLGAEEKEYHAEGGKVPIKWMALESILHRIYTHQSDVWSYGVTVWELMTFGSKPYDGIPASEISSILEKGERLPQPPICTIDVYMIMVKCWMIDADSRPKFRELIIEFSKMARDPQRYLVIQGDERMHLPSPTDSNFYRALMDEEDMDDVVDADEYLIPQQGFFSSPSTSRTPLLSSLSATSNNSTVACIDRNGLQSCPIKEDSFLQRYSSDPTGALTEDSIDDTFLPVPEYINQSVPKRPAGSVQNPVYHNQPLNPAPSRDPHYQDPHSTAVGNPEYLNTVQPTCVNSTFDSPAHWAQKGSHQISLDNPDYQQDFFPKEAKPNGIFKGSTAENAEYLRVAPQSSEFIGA
Description: EGFR Target Modulation in HaCaT (EGFR-WT) Cell Line Tissue Culture. […] The serial diluted compounds were transferred to the plate containing cells by using a 50 nl Pin Head device (Perkin Elmer) and the cells were placed back in the incubator for 3 hours. […] Phospho-EGFR ([…]) ELISA. Solid white high-binding ELISA plates (Greiner #781074) were coated with 5 ug/ml anti-EGFR capture antibody (R&D Systems #AF231) overnight in 50 mM carbonate/bicarbonate pH 9.5 buffer. […] Wash steps were carried out with a Bio-Tek ELx405 SelectTM using 4 cycles of 100 ul TBS-T (20 mM Tris, 137 mM NaCl, 0.05% Tween-20) per well. […] Lysis was allowed to occur for 20 minutes on ice. A 25 ul aliquot was added to each well of the blocked ELISA plate and incubated overnight at 4° C. with gentle shaking. […] After washing, 1:2,000 anti-rabbit-HRP (Cell Signaling #7074) in 0.2% BSA/TBS-T was added and incubated for 1 hour at room temperature. Chemiluminescent detection was carried out with SuperSignal ELISA Pico substrate (ThermoScientific #37069). Signal was read on EnVision plate reader using built-in UltraLUM setting. Data Analysis. Control cells treated with EGF were set to 100% maximum response. […] With these parameters, the IC50's for each compound in each cell line was calculated using non-linear curve fitting analysis.

EGFR(L858R/T790M) = target: T1, EGFR(L858R/T790M) (Homo sapiens, UniProt P00533, L858R/T790M); assay: EGFR biochemical assay (HTRF), IC50 determinations
T1 construct: purchased from Carna (GST-a.a. 669-1210)
T1 sequence (P00533 669-1210 T790M/L858R): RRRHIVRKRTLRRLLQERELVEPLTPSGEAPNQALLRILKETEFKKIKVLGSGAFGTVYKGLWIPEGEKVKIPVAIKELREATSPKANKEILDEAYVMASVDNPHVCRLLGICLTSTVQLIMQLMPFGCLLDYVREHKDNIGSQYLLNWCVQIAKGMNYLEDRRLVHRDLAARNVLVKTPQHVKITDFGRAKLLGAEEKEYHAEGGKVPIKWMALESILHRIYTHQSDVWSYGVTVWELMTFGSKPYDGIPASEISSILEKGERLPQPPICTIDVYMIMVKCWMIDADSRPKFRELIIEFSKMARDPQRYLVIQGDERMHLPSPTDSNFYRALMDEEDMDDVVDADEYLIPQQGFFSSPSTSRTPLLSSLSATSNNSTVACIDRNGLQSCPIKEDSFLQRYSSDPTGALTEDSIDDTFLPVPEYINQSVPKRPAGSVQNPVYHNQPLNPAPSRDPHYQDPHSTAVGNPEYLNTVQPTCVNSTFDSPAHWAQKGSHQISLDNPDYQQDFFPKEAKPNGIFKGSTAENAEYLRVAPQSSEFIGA
Outline: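 HTRF kinase reaction with biotin-TK peptide at room temperature, quenched with EDTA at 60 min and detected with PT66K/SAXL after 1 h. Without preincubation, enzyme starts the reaction with compound, ATP and peptide present. With preincubation, compound, enzyme and peptide sit at room temperature for a set time before ATP is added.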

H1975 (EGFR L858/T790M) = H1975 (EGFR L858/T790M) (Homo sapiens, UniProt P00533, L858R/T790M); assay: EGFR target modulation in H1975 cell line (phospho-EGFR Y1173 ELISA); format: cell-based
Sequence of H1975 (EGFR L858/T790M) (P00533 25-1210 T790M/L858R): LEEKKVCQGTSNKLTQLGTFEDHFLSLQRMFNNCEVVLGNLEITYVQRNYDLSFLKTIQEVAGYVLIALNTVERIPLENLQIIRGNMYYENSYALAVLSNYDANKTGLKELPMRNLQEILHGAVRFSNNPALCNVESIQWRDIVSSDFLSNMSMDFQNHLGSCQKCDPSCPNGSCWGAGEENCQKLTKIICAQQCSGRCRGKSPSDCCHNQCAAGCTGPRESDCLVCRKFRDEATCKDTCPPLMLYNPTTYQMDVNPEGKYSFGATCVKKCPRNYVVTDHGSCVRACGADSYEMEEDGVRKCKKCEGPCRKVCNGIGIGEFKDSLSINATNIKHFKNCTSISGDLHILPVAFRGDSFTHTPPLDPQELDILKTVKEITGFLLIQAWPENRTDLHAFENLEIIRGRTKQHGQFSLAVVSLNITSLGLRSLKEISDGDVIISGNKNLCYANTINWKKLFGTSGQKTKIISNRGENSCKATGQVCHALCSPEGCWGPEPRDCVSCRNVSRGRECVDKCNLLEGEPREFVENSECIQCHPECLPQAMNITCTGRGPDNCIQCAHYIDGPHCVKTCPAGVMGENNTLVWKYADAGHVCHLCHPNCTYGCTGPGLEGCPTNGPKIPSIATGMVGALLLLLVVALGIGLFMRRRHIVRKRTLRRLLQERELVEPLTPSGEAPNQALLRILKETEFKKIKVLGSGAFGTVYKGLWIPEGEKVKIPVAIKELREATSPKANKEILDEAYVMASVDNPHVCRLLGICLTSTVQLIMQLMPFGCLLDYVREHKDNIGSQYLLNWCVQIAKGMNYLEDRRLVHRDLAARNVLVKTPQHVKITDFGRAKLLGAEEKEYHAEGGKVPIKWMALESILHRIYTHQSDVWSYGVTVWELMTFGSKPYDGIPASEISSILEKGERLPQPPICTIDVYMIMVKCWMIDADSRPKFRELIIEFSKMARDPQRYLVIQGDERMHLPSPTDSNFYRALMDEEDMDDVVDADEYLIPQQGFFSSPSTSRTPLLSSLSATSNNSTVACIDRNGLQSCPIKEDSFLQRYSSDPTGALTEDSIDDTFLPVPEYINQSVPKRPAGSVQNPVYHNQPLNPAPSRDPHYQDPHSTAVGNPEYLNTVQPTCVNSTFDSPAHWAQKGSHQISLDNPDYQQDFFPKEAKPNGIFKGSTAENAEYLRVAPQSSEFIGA
Outline: as §1

[1] = EGFR (L858R/T790M) with 90 min pre-incubation, read-out: IC50 (μM) Column B
[2] = EGFR (L858R/T790M) with no pre-incubation, read-out: IC50 (μM) Column A

Sequence of H3255 (EGFR L858R) (P00533 25-1210 L858R): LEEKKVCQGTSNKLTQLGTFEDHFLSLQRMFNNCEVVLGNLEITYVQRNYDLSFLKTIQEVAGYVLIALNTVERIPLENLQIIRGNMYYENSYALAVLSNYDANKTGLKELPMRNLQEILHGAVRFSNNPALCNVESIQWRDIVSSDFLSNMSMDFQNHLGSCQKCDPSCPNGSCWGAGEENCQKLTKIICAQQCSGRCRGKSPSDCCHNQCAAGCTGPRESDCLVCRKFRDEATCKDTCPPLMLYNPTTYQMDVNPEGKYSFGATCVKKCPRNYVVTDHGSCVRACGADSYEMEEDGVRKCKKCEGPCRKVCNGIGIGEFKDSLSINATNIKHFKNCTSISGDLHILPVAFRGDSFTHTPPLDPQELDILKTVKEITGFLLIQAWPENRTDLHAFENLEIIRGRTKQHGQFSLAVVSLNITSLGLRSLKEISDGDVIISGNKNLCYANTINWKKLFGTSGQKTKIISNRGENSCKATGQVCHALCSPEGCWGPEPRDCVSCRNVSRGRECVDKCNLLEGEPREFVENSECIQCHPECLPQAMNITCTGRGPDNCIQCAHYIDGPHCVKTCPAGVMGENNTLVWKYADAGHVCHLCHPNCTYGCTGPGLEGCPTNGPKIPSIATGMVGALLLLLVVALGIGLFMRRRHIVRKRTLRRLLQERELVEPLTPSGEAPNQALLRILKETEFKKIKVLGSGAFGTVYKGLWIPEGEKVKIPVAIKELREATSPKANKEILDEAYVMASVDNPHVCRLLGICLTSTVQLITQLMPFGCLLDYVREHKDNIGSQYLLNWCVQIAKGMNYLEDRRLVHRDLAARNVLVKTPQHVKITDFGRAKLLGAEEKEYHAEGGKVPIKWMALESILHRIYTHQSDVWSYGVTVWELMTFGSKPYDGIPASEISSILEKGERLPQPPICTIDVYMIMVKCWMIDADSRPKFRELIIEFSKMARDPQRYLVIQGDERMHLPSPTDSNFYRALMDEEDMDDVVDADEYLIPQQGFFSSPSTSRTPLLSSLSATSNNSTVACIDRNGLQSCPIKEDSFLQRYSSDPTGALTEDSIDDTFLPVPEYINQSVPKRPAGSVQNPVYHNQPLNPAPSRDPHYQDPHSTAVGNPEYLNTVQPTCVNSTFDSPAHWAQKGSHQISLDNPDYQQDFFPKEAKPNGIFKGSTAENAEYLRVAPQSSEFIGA

`Cc1cc(C(=O)Nc2nc3cccc(Cl)c3n2C2CCCCN(C(=O)/C=C/CN(C)C)C2)cc(P(C)(C)=O)n1` (single isomer, unassigned) [Example 21-9A] was tested, and the IC50 (H3255 (EGFR L858R)) was 6580 nM, the IC50 (HaCaT (EGFR WT)) was greater than 10000 nM and the IC50 (EGFR(L858R/T790M); [1]) was 3.7 µM. For the same compound, the IC50 (EGFR(L858R/T790M); [2]) was 32.4 µM and the IC50 (H1975 (EGFR L858/T790M)) was greater than 10000 nM.
For `Cc1cc(C(=O)Nc2nc3cccc(Cl)c3n2C2CCCCN(C(=O)/C=C/CN(C)C)C2)cc(P(C)(C)=O)n1` (single isomer, unassigned) [Example 21-9B], the IC50 (H3255 (EGFR L858R)) was 312 nM, the IC50 (HaCaT (EGFR WT)) was greater than 10000 nM and the IC50 (EGFR(L858R/T790M); [1]) was 0.024 µM. It also gave an IC50 (EGFR(L858R/T790M); [2]) of 0.894 µM and an IC50 (H1975 (EGFR L858/T790M)) of 314 nM.
With `CN(C)C/C=C/C(=O)N1CCCCC(n2c(NC(=O)c3ccnc(P(C)(C)=O)c3)nc3cccc(Cl)c32)C1` (single isomer, unassigned) [Example 21-10A] the IC50 (H3255 (EGFR L858R)) was 1540 nM, the IC50 (HaCaT (EGFR WT)) was greater than 10000 nM and the IC50 (EGFR(L858R/T790M); [1]) was 0.572 µM. It also gave an IC50 (EGFR(L858R/T790M); [2]) of 6.05 µM and an IC50 (H1975 (EGFR L858/T790M)) greater than 10000 nM.
`CN(C)C/C=C/C(=O)N1CCCCC(n2c(NC(=O)c3ccnc(P(C)(C)=O)c3)nc3cccc(Cl)c32)C1` (single isomer, unassigned) [Example 21-10B] gave an IC50 (H3255 (EGFR L858R)) of 77 nM, an IC50 (HaCaT (EGFR WT)) of 6090 nM and an IC50 (EGFR(L858R/T790M); [1]) of 0.014 µM. The IC50 (EGFR(L858R/T790M); [2]) was 0.222 µM and the IC50 (H1975 (EGFR L858/T790M)) was 421 nM.
`Cc1cc(C(=O)Nc2nc3cccc(Cl)c3n2[C@@H]2CCCCN(C(=O)C3=CCCN(C)C3)C2)ccn1` [Example 3-16] was tested, and the IC50 (H3255 (EGFR L858R)) was 2530 nM, the IC50 (HaCaT (EGFR WT)) was greater than 10000 nM and the IC50 (EGFR(L858R/T790M); [1]) was 0.36 µM. The IC50 (EGFR(L858R/T790M); [2]) was 0.352 µM and the IC50 (H1975 (EGFR L858/T790M)) was 899 nM.
`Cc1cc(C(=O)Nc2nc3cccc(Cl)c3n2[C@@H]2CCCCN(C(=O)C3=CCN(C)CC3)C2)ccn1` [Example 3-17] showed an IC50 (H3255 (EGFR L858R)) of 6400 nM, an IC50 (HaCaT (EGFR WT)) greater than 10000 nM and an IC50 (EGFR(L858R/T790M); [1]) of 1.2 µM. The IC50 (EGFR(L858R/T790M); [2]) was 0.676 µM and the IC50 (H1975 (EGFR L858/T790M)) was 3480 nM.
For `C=CC(=O)N1CCN(C(=O)OC(C)(C)C)CC(n2c(NC(=O)c3ccnc(C)c3)nc3cccc(Cl)c32)C1` (stereo not shown) [Example 12, tert-butyl 4-acryloyl-6-(7-chloro-2-(2-methylisonicotinamido)-1H-benzo[d]imidazol-1-yl)-1,4-diazepane-1-carboxylate], the IC50 (H3255 (EGFR L858R)) was 111 nM, the IC50 (HaCaT (EGFR WT)) was greater than 10000 nM and the IC50 (EGFR(L858R/T790M); [1]) was 0.016 µM. The IC50 (EGFR(L858R/T790M); [2]) was 0.271 µM and the IC50 (H1975 (EGFR L858/T790M)) was 50 nM.
`C=CC(=O)N1CCNCC(n2c(NC(=O)c3ccnc(C)c3)nc3cccc(Cl)c32)C1` (stereo not shown) [Example 13, N-(1-(1-acryloyl-1,4-diazepan-6-yl)-7-chloro-1H-benzo[d]imidazol-2-yl)-2-methylisonicotinamide] showed an IC50 (H3255 (EGFR L858R)) of 312 nM, an IC50 (HaCaT (EGFR WT)) greater than 10000 nM and an IC50 (EGFR(L858R/T790M); [1]) of 0.113 µM. The IC50 (EGFR(L858R/T790M); [2]) was 1.63 µM and the IC50 (H1975 (EGFR L858/T790M)) was 113 nM.
